Experimental data taken from patent publication US6177475A, “Methods of using integrin modulators for treatment of inflammation” (priority 1997, dated 2001).

What was measured:
cell-free HIV = assay: Cell-free HIV infection of syncytiotrophoblasts; format: cell-based, HIV-1; details: 200 micromoles per liter and lower concentrations tested
Method: (§1) In order to assess the ability of Ajoene to inhibit lymphocyte-mediated HIV infection of syncytiotrophoblasts, HIV-1LBi -infected MOLT-4 cells were added to adherent cultures of uninfected syncytiotrophoblasts in the presence and absence of Ajoene. Various additional control conditions were also established. First, some wells received filtered (0.45 micrometer) supernatant of cell-free HIV from infected cell cultures. Yet other negative controls included syncytiotrophoblasts cultured alone and syncytiotrophoblasts cultured with uninfected MOLT-4 cells. After 24 hours, the cocultures were washed to removed unbound lymphocytes, fixed, permeabilized, stained for viral core antigens (p24 and p55), and viewed under a fluorescence microscope.

GP IIb/IIIa = details: cited from earlier work
[1] = tested on: HIV-1LBi (HIV-infected MOLT-4 cells, syncytiotrophoblasts); assay: Lymphocyte-mediated HIV infection of syncytiotrophoblasts; format: cell-based; details: 200 micromoles per liter, 24 hours, virtually all colonies
Text: Human fetal placental epithelial cells, known as syncytiotrophoblasts, were organized in a monolayer and exposed to HIV-infected lymphocytic cells and, as a negative control, to uninfected cells of the same type. This experimental system, closely simulating the actual conditions under which syncytiotrophoblasts would be exposed to HIV-infected cells in vivo, was used to assess integrin-modulating effects of Ajoene.
as §1

C=CCSSC=CC[S+]([O-])CC=C (stereo not shown) [Ajoene, 4,5,9-trithiadodeca-1,6,11-triene-9-oxide]
inhibition of cell-free HIV infection of syncytiotrophoblasts (cell-free HIV): totally inhibited | inhibition of platelet aggregation by inactivation of GP IIb/IIIa (GP IIb/IIIa; Apitz-Castro et al., 1986): inhibit platelet aggregation by inactivating allosterically the platelet integrin, GP IIb/IIIa | reversibility of integrin inhibition (GP IIb/IIIa): reversible | prevention of lymphocyte-mediated HIV infection of syncytiotrophoblasts [1]: totally prevented
